Assay results taken from US8853258B2, “C-linked hydroxamic acid derivatives useful as antibacterial agents” (Pfizer Inc., priority 2009, dated 2014).
In brackets after ≈: the same amount, converted by molar mass. Like-named read-outs stand apart in the source and are kept apart here.

Columns and labels:
[1] = test system: Klebsiella pneumoniae: Ciprofloxacin-resistant isolate, ESBL, clinical isolate (KP-3700); test: MIC determination (CLSI), KP-3700; format: cell-based
Procedure, shortened: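 Strain KP-3700, a clinical isolate producing extended-spectrum β-lactamases and resistant to ciprofloxacin, was tested. Minimum inhibitory concentrations determined via CLSI dilution methodology (M7-A7; M100-S18).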

[2] = biological target: Pseudomonas aeruginosa LpxC enzyme (Pseudomonas aeruginosa (strain ATCC 15692 / DSM 22644 / CIP 104116 / JCM 14847 / LMG 12228 / 1C / PRS 101 / PAO1), UniProt P47205); test: IC50 Assay, LpxC Enzyme from P. aeruginosa (PA LpxC Enzyme IC50); format: biochemical
Procedure, shortened: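 Product formation quantified by RapidFire HTMS after a 1 h enzyme reaction quenched with 1N HCl.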

[3] = test system: Pseudomonas aeruginosa UI-18: Wild-type (PA-7); test: MIC determination (CLSI), PA-7; format: cell-based; conditions: for MIC: Pseudomonas aeruginosa
Procedure, shortened: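 Wild-type P. aeruginosa UI-18 tested for minimum inhibitory concentration. Broth/agar dilution following CLSI standards (M7-A7, M100-S18).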

[4] = test system: Acinetobacter baumanii/haemolyticus: Multidrug-resistant clinical isolate (AB-3167); test: MIC determination (CLSI), AB-3167; format: cell-based; conditions: for MIC: Acinetobacter baumannii
Procedure, shortened: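 Multidrug-resistant clinical isolate AB-3167 (A. baumannii/haemolyticus) tested for minimum inhibitory concentration following CLSI dilution susceptibility standards M7-A7 and M100-S18.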

[5] = test system: Escherichia coli EC-1: VOGEL, mouse virulent; test: MIC determination (CLSI), EC-1; format: cell-based; conditions: for MIC: Escherichia coli
Procedure, shortened: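 E. coli Vogel, a mouse-virulent strain (EC-1), was tested. MICs were set by dilution susceptibility testing per CLSI standards M7-A7/M100-S18.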

[6] = Table 3, read-out: PA LpxC enzyeme IC^50
[7] = Table 1, read-out: PA LpxC enzyeme IC50
[8] = Table 1, MIC, read-out: PA-7 (MIC)
[9] = Table 1, MIC, read-out: AB-3167 (MIC)
[10] = P. aeruginosa LpxC enzyme, read-out: PA LpxC enzyeme IC50
[11] = Pseudomonas aeruginosa UI-18 wild-type PA-7
[12] = Acinetobacter baumanii/haemolyticus multidrug-resistant clinical isolate AB-3167
[13] = Escherichia coli EC-1 VOGEL, mouse virulent
[14] = Pseudomonas aeruginosa UI-18 (PA-7)
[15] = Acinetobacter baumanii/haemolyticus AB-3167

Row | Structure (SMILES) | KP-3700 MIC [1] | IC50 [2, 6] [nM] | MIC ([3]; Table 3, read-out: PA-7 MIC) [µg/mL] | MIC ([4]; Table 3, read-out: AB-3167 MIC) [µg/mL] | MIC ([5]; read-out: EC-1 MIC) [µg/mL] | IC50 [2, 10] [nM] | PA-7 MIC [3, 11] | AB-3167 MIC [4, 12] | EC-1 MIC [5, 13] | other results
1 | CC(CCc1ccc(OCc2c(F)cc(F)cc2F)cc1)(C(=O)NO)S(C)(=O)=O (stereo not drawn) [Example 293, N-hydroxy-2-methyl-2-(methylsulfonyl)-4-{4-[(2,4,6-trifluorobenzyl)oxy]phenyl}butanamide] | 32 µg/mL | 0.955 | 4 (≈ 9.27 µM) | 32 (≈ 74.2 µM) | 4 (≈ 9.27 µM) |  |  |  |  | 
2 | Cc1cccc(-c2nc(COc3ccc(CCC(C)(C(=O)NO)S(C)(=O)=O)cc3)c(C)o2)c1 (stereo not drawn) [Example 278, N-hydroxy-2-methyl-4-(4-{[5-methyl-2-(3-methylphenyl)-1,3-oxazol-4-yl]methoxy}phenyl)-2-(methylsulfonyl)butanamide] | ≧64 mg/L | 10.4 | ≥ 64 | ≥ 64 | 32 (≈ 67.7 µM) |  |  |  |  | 
3 | Cc1ccccc1COc1ccc(CCC(C)(C(=O)NO)S(C)(=O)=O)cc1 (stereo not drawn) [Example 260, N-hydroxy-2-methyl-4-{4-[(2-methylbenzyl)oxy]phenyl}-2-(methylsulfonyl)butanamide] | ≧64 mg/L | 1.45 | 8 (≈ 20.4 µM) | 32 (≈ 81.7 µM) | 16 (≈ 40.9 µM) |  |  |  |  | 
4 | CC(CCc1ccc(Sc2ccccc2)cc1)(C(=O)NO)S(C)(=O)=O (stereo not drawn) [Example 12, N-Hydroxy-2-methyl-2-(methylsulfonyl)-4-[4-(phenylthio)phenyl]butanamide] | 32 µg/mL |  |  |  |  |  |  |  |  | IC50 [2, 7]: 11.9 nM; MIC [3, 8]: 8 µg/mL (≈ 21.1 µM); MIC [4, 9]: 8 µg/mL (≈ 21.1 µM); MIC ([5]; read-out: EC-1: (MIC)): 8 µg/mL (≈ 21.1 µM)
5 | CC(CCc1ccc(-c2ccc(C#N)c(Cl)c2)cc1)(C(=O)NO)S(C)(=O)=O (stereo not drawn) [Example 126] | 2 µg/mL |  |  |  |  | 0.329 | 0.5 µg/mL | 8 µg/mL | 0.5 µg/mL | 
6 | CC(CCc1ccc(-c2ccc(C(=O)CO)cc2)cc1F)(C(=O)NO)S(C)(=O)=O (stereo not drawn) [Example 183] | 4 µg/mL |  |  |  |  | 0.387 | 2 µg/mL | ≧64 mg/L | 2 µg/mL | 
7 | CC(CCc1ccc(-c2cc(F)c(C#N)c(F)c2)cc1)(C(=O)NO)S(C)(=O)=O (stereo not drawn) [Example 127] | 8 µg/mL |  |  |  |  | 0.15 | 2 µg/mL | 32 µg/mL | 1 µg/mL | 
8 | Cc1ccc(-c2ccc(CCC(C)(C(=O)NO)S(C)(=O)=O)cc2)cc1C (stereo not drawn) [Example 83] | 4 µg/mL |  |  |  |  | 0.242 | 2 µg/mL | 8 µg/mL | 1 µg/mL | 
9 | CC(CCc1ccc(OCc2cc(F)ccc2C(F)(F)F)cc1)(C(=O)NO)S(C)(=O)=O (stereo not drawn) [Example 280, 4-(4-{[5-fluoro-2-(trifluoromethyl)benzyl]oxy}phenyl)-N-hydroxy-2-methyl-2-(methylsulfonyl)butanamide] | 32 µg/mL | 13.8 | 32 (≈ 69 µM) | 32 (≈ 69 µM) | 8 (≈ 17.3 µM) |  |  |  |  | 
10 | COc1cc(COc2ccc(CCC(C)(C(=O)NO)S(C)(=O)=O)cc2)cc(OC)c1 (stereo not drawn) [Example 244, 4-{4-[(3,5-dimethoxybenzyl)oxy]phenyl}-N-hydroxy-2-methyl-2-(methylsulfonyl)butanamide] | 16 µg/mL | 5 | ≥ 64 | ≥ 64 | 4 (≈ 9.14 µM) |  |  |  |  | 
11 | C[C@@](CCc1ccc(-c2ccc(O)cc2)cc1)(C(=O)NO)S(C)(=O)=O [Example 23, (2R)—N-hydroxy-4-(4′-hydroxybiphenyl-4-yl)-2-methyl-2-(methylsulfonyl)butanamide] | 8 µg/mL |  |  |  |  |  |  |  |  | IC50 [2, 7]: 0.18 nM; MIC [3, 8]: 2 µg/mL (≈ 5.5 µM); MIC [4, 9]: ≥ 64 µg/mL; MIC ([5]; read-out: EC-1: (MIC)): 4 µg/mL (≈ 11 µM)
12 | C[C@@](CCc1ccc(-c2cccnc2)cc1)(C(=O)NO)S(C)(=O)=O [Example 198] | ≧64 mg/L |  |  |  |  | 3.84 | 8 µg/mL | ≧64 mg/L | ≧64 mg/L | 
13 | CC(CCc1ccc(-c2ccc(OCCCO)cc2)cc1)(C(=O)NO)S(C)(=O)=O (stereo not drawn) [Example 115] | 2 µg/mL |  |  |  |  | 0.388 | 2 µg/mL | ≧64 mg/L | 0.5 µg/mL | 
14 | CC(CCc1ccc(C2=CCCCCC2)cc1)(C(=O)NO)S(C)(=O)=O (stereo not drawn) [Example 13, 4-(4-Cyclohept-1-en-1-ylphenyl)-N-hydroxy-2-methyl-2-(methylsulfonyl)butanamide] | 4 µg/mL |  |  |  |  |  |  |  |  | IC50 [2, 7]: 0.29 nM; MIC [3, 8]: 1 µg/mL (≈ 2.74 µM); MIC [4, 9]: 0.5 µg/mL (≈ 1.37 µM); MIC ([5]; read-out: EC-1: (MIC)): 2 µg/mL (≈ 5.47 µM)
15 | CC(CCc1ccc(-c2cc(F)ccc2F)cc1)(C(=O)NO)S(C)(=O)=O (stereo not drawn) [Example 38] | 32 µg/mL |  |  |  |  | 0.752 | 1 µg/mL | 16 µg/mL | 2 µg/mL | 
16 | CC(CCc1ccc(OCc2ccc(-n3cccn3)cc2)cc1)(C(=O)NO)S(C)(=O)=O (stereo not drawn) [Example 304, N-hydroxy-2-methyl-2-(methylsulfonyl)-4-(4-{[4-(1H-pyrazol-1-yl)benzyl]oxy}phenyl)butanamide] | 16 µg/mL | 1.99 | 16 (≈ 36.1 µM) | 32 (≈ 72.1 µM) | 4 (≈ 9.02 µM) |  |  |  |  | 
17 | COc1ccc(-c2ccc(CCC(C)(C(=O)NO)S(C)(=O)=O)cc2F)cn1 (stereo not drawn) [Example 213] | 8 µg/mL |  |  |  |  | 0.518 |  |  |  | PA-7 MIC [3, 14]: 2 µg/mL; AB-3167 MIC [4, 15]: ≧64 mg/L; EC-1 MIC ([5]; Escherichia coli EC-1): 2 µg/mL
18 | Cc1cc(-c2ccc(CCC(C)(C(=O)NO)S(C)(=O)=O)cc2)ccc1C#N (stereo not drawn) [Example 109] | 2 µg/mL |  |  |  |  | 0.144 | 2 µg/mL | 32 µg/mL | 0.5 µg/mL | 
19 | CC(Oc1ccc(CCC(C)(C(=O)NO)S(C)(=O)=O)cc1)c1ccccc1 (stereo not drawn) [Example 282, N-hydroxy-2-methyl-2-(methylsulfonyl)-4-[4-(1-phenylethoxy)phenyl]butanamide] | ≧64 mg/L | 9.55 | ≥ 64 | 32 (≈ 81.7 µM) | 8 (≈ 20.4 µM) |  |  |  |  | 
20 | CC(O)C(=O)c1ccc(-c2ccc(CCC(C)(C(=O)NO)S(C)(=O)=O)cc2)cc1 (stereo not drawn) [Example 194] | 4 µg/mL |  |  |  |  | 0.195 | 1 µg/mL | ≧64 mg/L | 1 µg/mL | 
21 | Cc1cccnc1COc1ccc(CCC(C)(C(=O)NO)S(C)(=O)=O)cc1 (stereo not drawn) [Example 287, N-hydroxy-2-methyl-4-{4-[(3-methylpyridin-2-yl)methoxy]phenyl}-2-(methylsulfonyl)butanamide] | ≧64 mg/L | 3.14 | 16 (≈ 40.8 µM) | ≥ 64 | ≥ 64 |  |  |  |  | 
22 | C[C@](CCc1ccc(-c2ccc3c(c2)OCCO3)cc1)(C(=O)NO)S(C)(=O)=O [Example 175] | ≧64 mg/L |  |  |  |  | 14.6 | ≧64 mg/L | ≧64 mg/L | 32 µg/mL | 
23 | Cc1cc(-c2ccc(C#N)cc2)ccc1CCC(C)(C(=O)NO)S(C)(=O)=O (stereo not drawn) [Example 161] | 16 µg/mL |  |  |  |  | 0.725 | 4 µg/mL | ≧64 mg/L | 1 µg/mL | 
24 | CC(CCc1ccc(C2=CCSCC2)cc1)(C(=O)NO)S(C)(=O)=O (stereo not drawn) [Example 226] | 8 µg/mL |  |  |  |  | 0.32 |  |  |  | PA-7 MIC [3, 14]: 1 µg/mL; AB-3167 MIC [4, 15]: 16 µg/mL; EC-1 MIC ([5]; Escherichia coli EC-1): 8 µg/mL
